Measured values from US10844052B2, “LLS compounds for treatment of cancer” (THE REGENTS OF THE UNIVERSITY OF CALIFORNIA, priority 2016, dated 2020).

Experiments:
[1] = test system: PC3 prostate cancer cells; assay: Cell viability of prostate cancer PC3 cells after 72 hours treatment; format: cell-based; settings: Homo sapiens; for viability at 2.5 µM: PC-3, 2.5 μM; for viability at 5 µM: PC-3, 5 μM; for viability at 10 µM: PC-3, 10 μM; for viability at 20 µM: PC-3, 20 μM
Procedure: Effects of compounds LLS42-LLS80 on the viability of PC3 prostate cancer cells after 72 hours of treatment are shown in Table 2 below: […]

[2] = test system: 22RV1 prostate cancer cells; assay: Cell viability of prostate cancer 22RV1 cells after 72 hours treatment; format: cell-based; settings: Homo sapiens

SMILES | viability at 2.5 µM [1] | viability at 5 µM [1] | viability at 10 µM [1] | viability at 20 µM [1] | viability at 2.5 µM [2] | viability at 5 µM [2] | viability at 10 µM [2]
CC(=O)OCCN(CCO)c1ccc(-c2nc3cc(C(CC(N)=O)NCc4ccc(-c5ccn[nH]5)s4)ccc3n2CCCN(C)C)cc1 (stereo not drawn) [LLS66, 2-((4-(5-(1-(((5-(1H-pyrazol-5-yl)thiophen-2-yl)methyl)amino)-3-amino-3-oxopropyl)-1-(3-(dimethylamino)propyl)-1H-benzo[d]imidazol-2-yl)phenyl)(2-hydroxyethyl)amino)ethyl Acetate] | 98% | 91% | 89% | 79% | – | – | –
CC(=O)OCCN(CCO)c1ccc(-c2nc3cc(C(CC(N)=O)NCc4ccc(-c5ccncc5)cc4)ccc3n2CCCn2ccnc2)cc1 (stereo not drawn) [LLS67, 2-((4-(1-(3-(1H-imidazol-1-yl)propyl)-5-(3-amino-3-oxo-1-((4-(pyridin-4-yl)benzyl)amino)propyl)-1H-benzo[d]imidazol-2-yl)phenyl)(2-hydroxyethyl)amino)ethyl Acetate] | 93% | 94% | 99% | 93% | – | – | –
COc1ccc(CCn2c(-c3ccc(N(CCOC(C)=O)CCOC(C)=O)cc3)nc3cc(C(CC(N)=O)NCc4ccc5[nH]ccc5c4)ccc32)cc1 (stereo not drawn) [LLS69Ac, ((4-(5-(1-(((1H-indol-5-yl)methyl)amino)-3-amino-3-oxopropyl)-1-(4-methoxyphenethyl)-1H-benzo[d]imidazol-2-yl)phenyl)azanediyl)bis(ethane-2,1-diyl) Diacetate] | 101% | 95% | 73% | 2% | – | – | –
NC(=O)CC(NCC1CCCCC1)c1ccc2c(c1)nc(-c1ccc(N(CCO)CCO)cc1)n2Cc1ccc(C(F)(F)F)cc1 (stereo not drawn) [LLS71, 3-(2-(4-(bis(2-hydroxyethyl)amino)phenyl)-1-(4-(trifluoromethyl)benzyl)-1H-benzo[d]imidazol-5-yl)-3-((cyclohexylmethyl)amino)propanamide] | 91% | 83% | 59% | 3% | – | – | –
NC(=O)CC(NCc1cccc2ccccc12)c1ccc2c(c1)nc(-c1ccc(N(CCO)CCO)cc1)n2Cc1ccc(C(F)(F)F)cc1 (stereo not drawn) [LLS73, 3-(2-(4-(bis(2-hydroxyethyl)amino)phenyl)-1-(4-(trifluoromethyl)benzyl)-1H-benzo[d]imidazol-5-yl)-3-((naphthalen-1-ylmethyl)amino)propanamide] | 94% | 92% | 69% | 8% | – | – | –
COc1ccc(CCn2c(-c3ccc(N(CCOC(C)=O)CCOC(C)=O)cc3)nc3cc(C(N)CC(N)=O)ccc32)cc1 (stereo not drawn) [LLS76, ((4-(5-(1,3-diamino-3-oxopropyl)-1-(4-methoxyphenethyl)-1H-benzo[d]imidazol-2-yl)phenyl)azanediyl)bis(ethane-2,1-diyl) Diacetate] | 92% | 86% | 86% | 85% | – | – | –
NC(=O)CC(NCc1ccc2[nH]ncc2c1)c1ccc2c(c1)nc(-c1ccc(N(CCO)CCO)cc1)n2Cc1ccc(C(F)(F)F)cc1 (stereo not drawn) [LLS77, 3-(((1H-indazol-5-yl)methyl)amino)-3-(2-(4-(bis(2-hydroxyethyl)amino)phenyl)-1-(4-(trifluoromethyl)benzyl)-1H-benzo[d]imidazol-5-yl)propanamide] | 99% | 100% | 101% | 103% | – | – | –
CC(=O)OCCN(CCOC(C)=O)c1ccc(-c2nc3cc(C(CC(N)=O)NCc4ccc(-c5ccn[nH]5)s4)ccc3n2CCCN(C)C)cc1 (stereo not drawn) [LLS78, ((4-(5-(1-(((5-(1H-pyrazol-5-yl)thiophen-2-yl)methyl)amino)-3-amino-3-oxopropyl)-1-(3-(dimethylamino)propyl)-1H-benzo[d]imidazol-2-yl)phenyl)azanediyl)bis(ethane-2,1-diyl) Diacetate] | 97% | 93% | 101% | 100% | – | – | –
NC(=O)CC(NCC1CCCCC1)c1ccc2c(c1)nc(-c1ccc(N3CCOCC3)cc1)n2Cc1ccc(OC(F)(F)F)cc1 (stereo not drawn) [LLS80, 3-((cyclohexylmethyl)amino)-3-(2-(4-morpholinophenyl)-1-(4-(trifluoromethoxy)benzyl)-1H-benzo[d]imidazol-5-yl)propanamide] | 86% | 25% | 6% | 0% | – | – | –
NC(=O)CC(NCc1ccc(F)c(F)c1)c1ccc2c(c1)nc(-c1ccc(N(CCO)CCO)cc1)n2Cc1ccc(Cl)c(Cl)c1 (stereo not drawn) [LLS83, 3-(2-(4-(bis(2-hydroxyethyl)amino)phenyl)-1-(3,4-dichlorobenzyl)-1H-benzo[d]imidazol-5-yl)-3-((3,4-difluorobenzyl)amino)propanamide] | – | – | – | – | 20% | 1% | 0%
NC(=O)CC(NCc1ccncc1)c1ccc2c(c1)nc(-c1ccc(N(CCO)CCO)cc1)n2Cc1ccc(Cl)c(Cl)c1 (stereo not drawn) [LLS84, 3-(2-(4-(bis(2-hydroxyethyl)amino)phenyl)-1-(3,4-dichlorobenzyl)-1H-benzo[d]imidazol-5-yl)-3-((pyridin-4-ylmethyl)amino)propanamide] | – | – | – | – | 119% | 109% | 138%
CN(C)CCCOc1ccc(-c2nc3cc(C(CC(N)=O)NCc4ccc(Cl)c(Cl)c4)ccc3n2Cc2ccc(Cl)c(Cl)c2)cc1 (stereo not drawn) [LLS85, 3-(1-(3,4-dichlorobenzyl)-2-(4-(3-(dimethylamino)propoxy)phenyl)-1H-benzo[d]imidazol-5-yl)-3-((3,4-dichlorobenzyl)amino)propanamide] | – | – | – | – | 65% | 1% | 0%
CN1CCN(c2ccc(-c3nc4cc(C(CC(N)=O)NCc5ccc(Cl)c(Cl)c5)ccc4n3Cc3ccc(Cl)c(Cl)c3)cc2)CC1 (stereo not drawn) [LLS86, 3-(1-(3,4-dichlorobenzyl)-2-(4-(4-methylpiperazin-1-yl)phenyl)-1H-benzo[d]imidazol-5-yl)-3-((3,4-dichlorobenzyl)amino)propanamide] | – | – | – | – | 45% | 0% | 0%
NC(=O)CC(NCc1ccc(Cl)c(Cl)c1)c1ccc2c(c1)nc(-c1cccc(OCCN3CCOCC3)c1)n2Cc1ccc(Cl)c(Cl)c1 (stereo not drawn) [LLS87, 3-(1-(3,4-dichlorobenzyl)-2-(3-(2-morpholinoethoxy)phenyl)-1H-benzo[d]imidazol-5-yl)-3-((3,4-dichlorobenzyl)amino)propanamide] | – | – | – | – | 76% | 56% | 0%
NC(=O)CC(NCC1CCCCC1)c1ccc2c(c1)nc(-c1ccncc1)n2Cc1ccc(OC(F)(F)F)cc1 (stereo not drawn) [LLS88, 3-((cyclohexylmethyl)amino)-3-(2-(pyridin-4-yl)-1-(4-(trifluoromethoxy)benzyl)-1H-benzo[d]imidazol-5-yl)propanamide] | – | – | – | – | 75% | 4% | 0%
CN(C)CCCOc1ccc(-c2nc3cc(C(CC(N)=O)NCC4CCCCC4)ccc3n2Cc2ccc(OC(F)(F)F)cc2)cc1 (stereo not drawn) [LLS89, 3-((cyclohexylmethyl)amino)-3-(2-(4-(3-(dimethylamino)propoxy)phenyl)-1-(4-(trifluoromethoxy)benzyl)-1H-benzo[d]imidazol-5-yl)propanamide] | – | – | – | – | 1% | 0% | 0%
CN1CCN(c2ccc(-c3nc4cc(C(CC(N)=O)NCC5CCCCC5)ccc4n3Cc3ccc(OC(F)(F)F)cc3)cc2)CC1 (stereo not drawn) [LLS90, 3-((cyclohexylmethyl)amino)-3-(2-(4-(4-methylpiperazin-1-yl)phenyl)-1-(4-(trifluoromethoxy)benzyl)-1H-benzo[d]imidazol-5-yl)propanamide] | – | – | – | – | 1% | 0% | 0%
NC(=O)CC(NCC1CCCCC1)c1ccc2c(c1)nc(-c1cccc(OCCN3CCOCC3)c1)n2Cc1ccc(OC(F)(F)F)cc1 (stereo not drawn) [LLS91, 3-((cyclohexylmethyl)amino)-3-(2-(3-(2-morpholinoethoxy)phenyl)-1-(4-(trifluoromethoxy)benzyl)-1H-benzo[d]imidazol-5-yl)propanamide] | – | – | – | – | 33% | 7% | 0%
NC(=O)CC(NCc1ccc(Cl)c(Cl)c1)c1ccc2c(c1)nc(-c1ccc(N(CCO)CCO)cc1)n2Cc1ccc(C(F)(F)F)cc1 (stereo not drawn) [LLS92, 3-(2-(4-(bis(2-hydroxyethyl)amino)phenyl)-1-(4-(trifluoromethyl)benzyl)-1H-benzo[d]imidazol-5-yl)-3-((3,4-dichlorobenzyl)amino)propanamide] | – | – | – | – | 74% | 15% | 1%
NC(=O)CC(NCc1ccc(Cl)c(Cl)c1)c1ccc2c(c1)nc(-c1ccc(N(CCO)CCO)cc1)n2Cc1ccc(Br)cc1 (stereo not drawn) [LLS93, 3-(2-(4-(bis(2-hydroxyethyl)amino)phenyl)-1-(4-bromobenzyl)-1H-benzo[d]imidazol-5-yl)-3-((3,4-dichlorobenzyl)amino)propanamide] | – | – | – | – | 22% | 2% | 0%
NC(=O)CC(NCC1CCCCC1)c1ccc2c(c1)nc(-c1ccc(N3CCOCC3)cc1)n2Cc1ccc(Br)cc1 (stereo not drawn) [LLS94, 3-(1-(4-bromobenzyl)-2-(4-morpholinophenyl)-1H-benzo[d]imidazol-5-yl)-3-((cyclohexylmethyl)amino)propanamide] | – | – | – | – | 3% | 0% | 0%
CN(C)CCCOc1ccc(-c2nc3cc(C(CC(N)=O)NCC4CCCCC4)ccc3n2Cc2ccc(Br)cc2)cc1 (stereo not drawn) [LLS95, 3-(1-(4-bromobenzyl)-2-(4-(3-(dimethylamino)propoxy)phenyl)-1H-benzo[d]imidazol-5-yl)-3-((cyclohexylmethyl)amino)propanamide] | – | – | – | – | 22% | 1% | 0%
